Consider four compounds from patent US20160340322A1 (NISSAN CHEMICAL INDUSTRIES, LTD., priority 2013, published 2016).

Structures are written as SMILES.

The target of this experiment is T1, Human T-type calcium channel (Cav 3.2) (Homo sapiens, UniProt O95180).
T1 construct: Edward Perez-Reyes, University of Virginia, USA; host or cells: HEK293
T1 sequence (O95180 whole entry): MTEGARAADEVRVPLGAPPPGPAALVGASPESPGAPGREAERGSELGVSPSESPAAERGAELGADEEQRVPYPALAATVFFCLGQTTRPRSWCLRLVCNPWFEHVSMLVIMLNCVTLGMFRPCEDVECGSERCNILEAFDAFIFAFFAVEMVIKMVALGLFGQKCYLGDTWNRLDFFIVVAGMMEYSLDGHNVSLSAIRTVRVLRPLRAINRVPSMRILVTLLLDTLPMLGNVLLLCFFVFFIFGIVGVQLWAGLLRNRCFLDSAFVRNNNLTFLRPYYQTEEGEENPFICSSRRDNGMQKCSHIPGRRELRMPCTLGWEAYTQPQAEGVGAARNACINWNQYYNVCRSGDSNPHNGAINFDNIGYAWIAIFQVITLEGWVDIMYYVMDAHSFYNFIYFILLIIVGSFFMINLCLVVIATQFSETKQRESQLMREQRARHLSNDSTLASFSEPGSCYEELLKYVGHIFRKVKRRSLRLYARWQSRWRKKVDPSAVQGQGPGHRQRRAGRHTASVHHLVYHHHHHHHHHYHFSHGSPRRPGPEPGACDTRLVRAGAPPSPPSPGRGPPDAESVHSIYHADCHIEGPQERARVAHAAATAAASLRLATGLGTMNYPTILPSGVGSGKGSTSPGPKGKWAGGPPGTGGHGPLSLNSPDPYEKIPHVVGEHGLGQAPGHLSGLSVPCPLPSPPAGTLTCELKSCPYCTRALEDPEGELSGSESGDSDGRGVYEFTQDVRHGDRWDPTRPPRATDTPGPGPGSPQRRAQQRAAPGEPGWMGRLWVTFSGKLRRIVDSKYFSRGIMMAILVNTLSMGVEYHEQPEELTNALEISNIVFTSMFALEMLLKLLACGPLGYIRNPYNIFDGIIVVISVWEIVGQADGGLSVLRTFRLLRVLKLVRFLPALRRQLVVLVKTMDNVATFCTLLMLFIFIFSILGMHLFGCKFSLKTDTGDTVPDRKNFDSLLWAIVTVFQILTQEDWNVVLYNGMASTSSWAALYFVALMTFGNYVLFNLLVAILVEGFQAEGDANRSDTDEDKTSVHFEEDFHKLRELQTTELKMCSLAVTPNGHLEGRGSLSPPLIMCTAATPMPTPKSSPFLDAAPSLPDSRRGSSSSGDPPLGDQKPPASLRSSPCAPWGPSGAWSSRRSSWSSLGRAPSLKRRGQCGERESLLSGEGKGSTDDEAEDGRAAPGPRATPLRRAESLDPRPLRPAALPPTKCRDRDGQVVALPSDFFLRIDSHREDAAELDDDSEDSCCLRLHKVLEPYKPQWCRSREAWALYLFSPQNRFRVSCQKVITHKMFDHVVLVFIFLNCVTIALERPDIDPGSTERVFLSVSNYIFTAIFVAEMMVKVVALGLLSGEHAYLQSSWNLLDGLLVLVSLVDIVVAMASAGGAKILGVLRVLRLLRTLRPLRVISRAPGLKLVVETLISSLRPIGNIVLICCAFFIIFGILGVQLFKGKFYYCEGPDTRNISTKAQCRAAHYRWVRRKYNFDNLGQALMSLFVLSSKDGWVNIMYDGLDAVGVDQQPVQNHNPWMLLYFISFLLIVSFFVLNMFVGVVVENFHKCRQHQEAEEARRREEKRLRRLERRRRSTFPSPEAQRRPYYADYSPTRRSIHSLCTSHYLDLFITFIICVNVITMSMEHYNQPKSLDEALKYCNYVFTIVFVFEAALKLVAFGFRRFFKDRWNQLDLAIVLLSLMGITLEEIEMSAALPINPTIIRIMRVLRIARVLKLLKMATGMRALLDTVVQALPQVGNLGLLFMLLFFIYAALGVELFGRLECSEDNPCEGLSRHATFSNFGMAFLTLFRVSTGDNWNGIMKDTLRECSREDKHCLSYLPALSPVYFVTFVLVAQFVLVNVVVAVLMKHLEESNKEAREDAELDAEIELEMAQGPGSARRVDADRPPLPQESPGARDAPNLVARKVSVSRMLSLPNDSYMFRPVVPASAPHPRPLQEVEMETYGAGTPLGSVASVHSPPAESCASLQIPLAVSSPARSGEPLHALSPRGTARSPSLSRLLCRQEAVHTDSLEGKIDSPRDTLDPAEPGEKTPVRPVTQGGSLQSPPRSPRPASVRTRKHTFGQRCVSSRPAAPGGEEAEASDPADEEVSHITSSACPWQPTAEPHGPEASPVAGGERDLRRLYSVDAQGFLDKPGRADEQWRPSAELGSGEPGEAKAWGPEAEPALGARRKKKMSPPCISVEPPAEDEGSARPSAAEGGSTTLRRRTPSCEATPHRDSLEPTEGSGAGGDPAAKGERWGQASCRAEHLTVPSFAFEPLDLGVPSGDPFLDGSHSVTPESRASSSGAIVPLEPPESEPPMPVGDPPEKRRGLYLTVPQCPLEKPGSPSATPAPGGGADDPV
The experiment in a line: Calcium Influx Inhibition Assay. Particulars: human T-type calcium channel (Cav 3.2) expressing HEK293 cells; FLIPR Calcium 4 fluorescence; 30 min compound incubation; read-out: T-type calcium channel inhibition concentration IC50. In kind it is cell-based. As for the experimental part: 1. Calcium Influx Inhibition Assay Human T-type calcium channel (Cav 3.2) expressing HEK293 cells were introduced from Prof. Edward Perez-Reyes, University of Virginia, USA. The calcium-sensitive fluorescent dye used was FLIPR Calcium 4 Assay Kit (Molecular Devices). To a black 96-well plate with a clear bottom coated with type I collagen, the human T-type calcium channel (Cav 3.2) expressing HEK293 cells were seeded and cultured overnight, and the culture medium was removed. A solution of the calcium-sensitive fluorescent dye was added, and the resultant plate was incubated at 37° C. in an atmosphere of 5% carbon dioxide for 30 minutes. To the plate, a diluted solution of a compound was added, and subjected to further incubation at 37° C. in an atmosphere of 5% carbon dioxide for 30 minutes. While fluorescence was continuously analyzed from the bottom with a FlexStation 3 (Molecular Devices), a calcium solution was added. […] Based on the rise value in the fluorescence from the base line, the inhibition percentage was calculated. The logarithms of compound concentrations were plotted with respect to the inhibition activities to obtain an IC50 value.
In the case of `Cc1ccc(C2=CCN(c3cnn(Cc4ccc(C(F)(F)F)s4)c(=O)n3)C[C@@H]2O)cc1F` [Synthesis Example 52, (R)-5-[4-(3-Fluoro-4-methylphenyl)-5-hydroxy-5,6-dihydropyridin-1(2H)-yl]-2-{[5-(trifluoromethyl)thiophen-2-yl]methyl}-1,2,4-triazin-3(2H)-one], the IC50 is 7.9 nM.

As to `O=c1nc(N2CCc3cc(C(F)(F)F)ccc3C2)cnn1Cc1ccc(C(F)(F)F)s1` [Synthesis Example 53, 5-[6-(trifluoromethyl)-3,4-dihydroisoquinolin-2(1H)-yl]-2-{[5-(trifluoromethyl)thiophen-2-yl]methyl}-1,2,4-triazin-3(2H)-one], the IC50 was found to be 170 nM.

Take `O=c1nc(N2CC=C(c3ccc(F)c(Cl)c3)[C@@H](O)C2)cnn1Cc1ccc(C(F)(F)F)s1` [Synthesis Example 54, (R)-5-[4-(3-Chloro-4-fluorophenyl)-5-hydroxy-5,6-dihydropyridin-1(2H)-yl]-2-{[5-(trifluoromethyl)thiophen-2-yl]methyl}-1,2,4-triazin-3(2H)-one]: the IC50 turned out to be 3.1 nM.

For the compound `O=c1nc(N2Cc3ccc(OC(F)F)cc3C(O)C2)cnn1Cc1cnc(C(F)(F)F)s1` (stereo not shown) [Synthesis Example 55], the IC50 was found to be 1000 nM.
